“Also recorded” adds a separate entry of the source.
Legend:
[1] = chemical stability in aqueous solutions; type: physicochemical; settings: over broad pH range
[2] = stability on incubation with hepatocyte extracts; type: in vitro ADME
[3] = stability on incubation with hepatocyte cell lines; type: in vitro ADME
[4] = system: mice with ischemic AKI; test: renal IRI model: necrotic and apoptotic cell death in the outer medulla; type: in vivo
Protocol: (§1) Mice were anesthetized with isoflurane using a vaporizer and placed on a heating pad to maintain their body temperature at 37° C. Both renal arteries were identified through dorsal incisions and clamped for 20, 30, 35, or 37 minutes. Reperfusion was confirmed visually upon release of the clamps. Surgical wounds were closed, and mice were administered 1 mL of saline i.p. The mice were kept in a warm incubator until they regained consciousness and were allowed to recover with ad libitum access to food and water. […] Serum and kidney tissue were collected 24 hours after renal IRI.
To evaluate necrosis, 5-μm-thick paraffin sections were stained with H&E. Tubular injury was scored semi quantitatively according to a scoring system by a pathologist who examined at least 20 separate fields (×400) in the outer medulla, which is the zone most sensitive to ischemic injury. The scoring system was as follows: 0, no damage; 1, patchy isolated unicellular necrosis; 2, tubular necrosis <25%; 3, tubular necrosis 25-50%; and 4, tubular necrosis >50%. At least 20 consecutive high-power fields (magnification, ×400) per section were scored by two operators blind to the details of the experiment. To analyze the frequency of apoptosis, 5-μm-thick paraffin sections were subjected to terminal deoxynucleotidyl transferase-mediated dUTP nick-end labeling (TUNEL) assay (APT110; Millipore) according to the manufacturer's protocol. TUNEL-positive cells were counted in at least five separate fields (×640 magnification) in the outer medulla, and the apoptosis index (%, number of apoptosis cells/total number of cells) was calculated using GENASIS software.

[5] = system: renal arterioles in the outer medulla; test: renal vasodilatation in the outer medulla (α-SMA-positive arteriole area); type: in vivo, mice; settings: α-SMA staining
Protocol: as §1
To quantify vasodilation, the inner arteriole area of the outer medulla was determined using α-SMA-stained sections. After counterstaining with Mayer's hematoxylin, the inner area of α-SMA-positive vessels in the outer medulla (×25) was measured using ImageJ. The results are expressed as average areas of renal arteries outer medulla.

[6] = system: cAMP/AMP/adenosine signaling pathway; test: renal IRI model: cAMP, AMP and adenosine levels; type: in vivo; settings: IRI mice
Protocol: as §1
After reperfusion for 24 hours, kidney tissues were harvested, homogenized in 10 volumes of 0.1 M HCl, and centrifuged for 10 minutes at 12,000 rpm. The protein concentration was determined by BCA assay. cAMP levels in kidney tissues were measured using a cAMP Complete ELISA Kit (ADI-900-163; Enzo Life Science) an adenosine Assay Kit (KA4547; abnova) and high-performance liquid chromatography (HPLC).

[7] = system: PGE2 receptors (EP1, EP2, EP3 and EP4) and adenosine receptor (A2A); test: renal IRI model: PGE2 receptors (EP1-EP4) and adenosine A2A receptor levels; type: in vivo, mice
Protocol: as §1
PGE2 receptors (EP1, EP2, EP3 and EP4) and adenosine receptor (A2A) mRNA levels were determined by real-time PCR with SYBR green PCR Master Mix and the primers listed in Table 1. Their protein levels were determined by western blotting assay and immunofluorescence analysis.

[8] = system: malondialdehyde (MDA); test: renal IRI model: malondialdehyde (MDA) in kidney tissue; type: in vivo; settings: IRI mice, single pre-IRI dose; vehicle peak 48% at 2 hours
Protocol: Mice were anesthetized with isoflurane using a vaporizer and placed on a heating pad to maintain their body temperature at 37° C. Both renal arteries were identified through dorsal incisions and clamped for 20, 30, 35, or 37 minutes. Reperfusion was confirmed visually upon release of the clamps. Surgical wounds were closed, and mice were administered 1 mL of saline i.p. The mice were kept in a warm incubator until they regained consciousness and were allowed to recover with ad libitum access to food and water. […]
Reactive oxygen species (ROS) levels were determined by measurement of malondialdehyde (MDA), the end product of lipid peroxidation in […]. Free MDA reacts with thiobarbituric acid (TBA) at 95° C. to generate an MDA-TBA adduct, which can be quantified colorimetrically at a wavelength of 532 nm. MDA levels were measured in kidney lysates using a lipid peroxidation (MDA) assay kit (ab118970; Abcam). Results were corrected for total protein level and are expressed as […].

[9] = system: PGE2 levels; test: renal IRI model: time course of PGE2 in kidney tissue and serum; type: in vivo, mice
Protocol: as §1
[…] Next, the kidney tissues (˜20 mg) were homogenized in 500 μL of cold PBS containing indomethacin (10 μg/mL) using a tissue homogenizer. The suspension was sonicated in an ice-water bath for 1 minute using cycles of 10 seconds of sonication with 10 seconds of cooling, and they were then centrifuged for 10 minutes at 12,000 rpm. The supernatant was collected for PGE2 assay. Protein concentrations were determined by BCA assay (23225; Thermo Scientific). The PGE2 level in the supernatant was measured using a PGE2 ELISA Kit (SKGE004B; R&D Systems) in triplicate. PGE2 levels were expressed as ng PGE2/mg protein.

[10] = system: mice with ischemic AKI; test: survival and body weight over 7 days after renal IRI; type: in vivo; settings: bilateral IRI 30 minutes, 5 mg/kg i.p. once pre-IRI then twice daily for 7 days
Protocol: (A) Experimental setup for toxicity. Ischemic AKI induced by bilaterally clamping the renal arteries for 30 minutes, followed by reperfusion. […] (n=10 per group). (B, C) Survival curves and body weight over 7 days. Kaplan-Meier analysis of survival stratified by AKI stage. Data are means±SEM. *P<0.05 vs. corresponding BI30_vehicle.

[11] = IRI mice, pretreatment, 0.5 hours, mRNA in kidney tissue
[12] = kidney tissue, in comparison to sham and to IRI mice

**Q.** With `CCCC[S+]([O-])c1sc2nc(-c3cccs3)cc(-c3ccccc3)c2c1N` (centres unmarked) [SW033291] as the molecule, how does the “chemical stability in aqueous solutions” value [1] read?
**A.** chemically stable

**Q.** And the “chemical stability when incubated with hepatocyte extracts” value [2]?
**A.** chemically stable

**Q.** What about the “chemical stability when incubated with hepatocyte cell lines” value [3] of the same molecule?
**A.** chemically stable

**Q.** And the “histologic renal injury score” value ([4]; 3 doses 5 mg/kg i.p., POD1, H&E, outer medulla)?
**A.** reducing

**Q.** And the “count of TUNEL positive apoptotic cells” value ([4]; 3 doses 5 mg/kg i.p., POD1, outer medulla)?
**A.** reducing

**Q.** And the “tissue congestion in the outer medulla (gross pathology)” value ([4]; 3 doses 5 mg/kg i.p., POD1, vs IRI-vehicle)?
**A.** ameliorated

**Q.** And the “renal injury (histopathology, tubular injury)” value ([4]; 3 doses 5 mg/kg, POD1, 5 mg/kg)?
**A.** markedly alleviated renal injury; also recorded: more effective than systemic administration of either exogenous PGE1 or PGE2

**Q.** What about the “renal arteriole area in the outer medulla” value ([5]; IRI mice) of the same molecule?
**A.** significantly increased

**Q.** What about the “renal arteriole area in the outer medulla” value ([5]; normal mice) of the same molecule?
**A.** increased

**Q.** What about the “levels of adenosine in the kidney” value [6] of the same molecule?
**A.** increased

**Q.** And the “levels of serum adenosine” value [6]?
**A.** significantly increased

**Q.** What about the “AMP level in kidney tissue” value ([6]; decrease after IRI vs sham) of the same molecule?
**A.** substantially reversed

**Q.** And the “cAMP level in kidney tissue” value ([6]; decrease after IRI vs sham)?
**A.** substantially reversed

**Q.** And the “increase of A2A receptor over baseline” value [7, 11]?
**A.** 1.6 fold

**Q.** And the “increase of EP4 receptor over baseline” value [7, 11]?
**A.** 2.4 fold

**Q.** And the “EP1 receptor mRNA” value ([7]; kidney tissue, IRI mice)?
**A.** without effecting

**Q.** And the “EP2 receptor mRNA” value ([7]; kidney tissue, IRI mice)?
**A.** without effecting

**Q.** And the “EP3 receptor mRNA” value ([7]; kidney tissue, IRI mice)?
**A.** without effecting

**Q.** And the “increase of EP4 receptor mRNA and protein levels” value [7, 12]?
**A.** up to 2.3 fold

**Q.** And the “levels of the adenosine A2A receptor protein” value [7, 12]?
**A.** induced

**Q.** And the “increase of malondialdehyde (MDA) above baseline” value [8]?
**A.** 14%

**Q.** And the “serum PGE2 level” value ([9]; BI30 mice at 24 hours, prophylaxis)?
**A.** significantly decreased

**Q.** And the “post-IRI peaks of renal PGE2 at 0.5 and 14 hours” value ([9]; IRI mice, single pre-IRI dose, kidney tissue)?
**A.** substantially block

**Q.** What about the “renal PGE2 peak over baseline before IRI” value ([9]; mice, single pre-IRI dose, kidney tissue) of the same molecule?
**A.** 5.12 fold

**Q.** What about the “body weight at POD7” value [10] of the same molecule?
**A.** regained greater weights than did vehicle treated mice

**Q.** What about the survival [10] of the same molecule?
**A.** survived at 7 days

— patent US20250325524A1, “COMPOSITIONS AND METHODS FOR TREATING RENAL INJURY” (CASE WESTERN RESERVE UNIVERSITY, priority 2018, published 2025)
